Laboratory results taken from patent US8575352B2, “Benzyl sulfonamide derivatives useful as MOGAT-2 inhibitors” (Eli Lilly and Company, priority 2012, dated 2013).
Where a name gives a salt, the structure may show the parent alone.

Assays:
[1] = tested on: plasma triglyceride (TAG) secretion from the intestine; assay: Dog Oil Bolus Model (plasma triglyceride after olive oil bolus); assay type: in vivo, dog (male beagles); settings: olive oil bolus 5 ml/kg; for reduction of 18:1 TAG (plasma TAG 18:1 18:1 18:1 net AUC): 18:1 TAG by LC/MS/MS
Description: Inhibiting MOGAT-2 found in the small intestine may be useful for treating hypertriglyceridemia caused by excessive fat intake Inhibition of MOGAT-2 disrupts resynthesis of triglycerides, which reduces secretion of triglycerides from the intestine. Therefore, MOGAT-2 inhibition interferes with a specific process that leads to eventual secretion of triglycerides into the intestine for eventual circulation through the body. To assess the ability of one or more of the exemplified compounds to inhibit MOGAT-2 induced TAG secretion into the intestine as measured in the blood system, the following protocol can be followed.
Twenty one male beagles (n=7 per treatment group) are enrolled for each study, each dog selected to have a body weight between 9-13 kg. House the dogs in cages with a standard light cycle (12 hours light and 12 hours dark); at room temperature: 72±8° F.; and at 30%-70% relative humidity. Fast the dogs for 16 hours prior to the start of the study, then dose the fasted dogs with vehicle (1% HEC, 0.25%, Tween 80, Antifoam) or one of the test compounds in that vehicle. Bleed the dogs one hour after dosing, (0.5 ml from the jugular vein) for a time 0 sample. Dose the dogs with olive oil (Sigma Catalog#: O-1514, 5 ml/kg) immediately after collection of the time 0 sample. Collect samples into an EDTA tube on ice at 1.5, 2, 3, 5, 7, and 9 hrs post compound/vehicle dosing. Centrifuge the samples at […] for 15 min and analyze (Roche Cat no. 1877771) for plasma total triglyceride using a Roche Hitachi 917. For plasma TAG 18.1—18.1—18.1 measurement, extract the samples and perform LC/MS/MS analysis similarly to that described above in MOGAT-2 Cell Assay using 10 μL of plasma/.
The analyte is the [M+NH4]+ ion of TAG 18:1 18:1 18:1, which has a mass of 902.8 m/z; the internal standard is D5 TAG 16:0 16:0 16:0, which has a mass of 829.8 m/z. Report the ratio of the 603.5 m/z daughter ion of 902.8 m/z (TAG 18:1 18:1 18:1) and the 556.5 m/z daughter ion of 829.8 m/z (D5 TAG 16:0 16:0 16:0 internal standard) changes in TAG 18:1 18:1 18:1 relative amount. Calculate the net plasma TAG AUC from total TAG AUC minus baseline TAG AUC using Graphpad Prism4: (Net AUCTAG=AUCTAG post oil bolus−AUCTAG at 0 hour). The percent inhibition of plasma triglyceride is calculated as follows: the (oil bolus group mean of net TAG AUC−oil bolus group mean of net TAG AUC with compound treatment/oil bolus group mean of net TAG AUC)*100. The final statistic analysis uses Dunnett's method of One way Anova for comparison with the control. All Net TAG AUC values are transformed to ranked averaged AUC for comparison to limit the variability within the studies.

human MOGAT-2 [2] = target: T1, human MOGAT-2 (Homo sapiens, UniProt Q3SYC2); assay: Inhibitory Activity in MOGAT-2 Cell Assay (Caco-2 cells stably transfected with human MOGAT-2, HDG substrate, LC-MS); assay type: cell-based; design: expressed in transfected cells; settings: Caco-2 cells expressing human MOGAT-2, HDG/DOPC, 4 hours; read-out: IC50 nM (Std Dev., n*)
Description: The inhibitory activity of compounds against human MOGAT-2 in a cell environment is evaluated in this assay. Caco-2 is a human colon carcinoma cell line and is often used as a model for intestinal epithelial cells. […] A MAG analogue, 2-O-Hexadecylglycerol (HDG), is utilized to detect cellular MOGAT-2 activity, because HDG is not hydrolyzed and the resulting product is readily monitored by mass spectrometry. The substrate is delivered to cells using as a mixture with DOPC in the form of sonicated vesicles.
Seed the Caco2 cells onto 100 mm dishes to be 80% confluent after 24 hours in complete media (3/1 DMEM: F12+10% FBS+20 mM HEPES+gentamicin). Transfect the cells with hMOGAT-2 plasmid (MOGAT-2-pcDNA3.1-Hygro) using Lipofectamine 2000 (Invitrogen). After a 6 hour exposure to the transfection mixture, wash the cells three times in PBS and then add media. Incubate the cells for an additional 18 hours incubation, trypsinize the cells and serially dilute them into 100 mm dishes. Add complete media+400 μg/ml hygromycin and incubate until clones appear. Isolate and transfer the clones into 24 well dishes and grow to confluency. Prepare the RNAs from these clones using a Qiagen RNAeasy kit. Perform Taqman analysis using an ABI inventoried assay (HS00228262) on a 7900 Sequence Detection System (ABI). Analyze the lysates from these clones by Western blot analysis using a goat polyclonal antibody (Santa Cruz, SC-32392 to confirm human MOGAT-2 expression of a 38 kD protein corresponding to MOGAT-2.
Mix 2-O-hexadecylglycerol (“HDG”, Biosynth Chemistry & Biology, #H-1806, 562.7 μl of 20 mg/ml) and DOPC (14.3 ml of 20 mg/ml) in chloroform in a glass tube; dry first under N2 gas; and then under reduced pressure for additional 30 minutes. Add 20 ml of buffer (150 mM Tris-Cl pH 7.4, 250 mM sucrose, 1 mM EDTA) to the dried HDG/DOPC mixture while sonicating until the solution becomes clear. Plate the Caco2 cells into a poly-D-lysine coated 96-well plate (the “Cell Plate”) at 37° C., 5% CO2 overnight. Remove the growth media and pretreat the cells with the test compound in DMEMF12 (3:1) media (GIBCO 93-0152DK) containing 2% BSA (Sigma) for 30 minutes. Treat the cells with one test compound in 2% BSA DMEMF12 (3:1) media containing 40 μM of oleic acid and 800 μM of 8.9:91.9 (molar ratio) HDG/DOPC for 4 hours. Trypsinize the cells with 50 μl of trypsin solution and add 50 μl of PBS. Immediately freeze the cells on dry ice and store at −20° C. for LC-MS analysis. Extract the cells with chloroform/methanol as follows: transfer the cells to a 2 ml plate; wash the cell plate with 200 μL methanol and then transfer the methanol wash to the 2 ml plate; wash the cell plate again with 200 μL PBS and transfer the PBS wash to the 2 ml plate. Add chloroform (400 μL) with internal standard (19.52 ng/mL) DAG (15:0, 15:0 (Sigma)), D5-TAG (39.03 ng/mL) CDN (16, 16, 16) to the 2 mL Plate. Turn the sealed 2 mL Plate up and down (10×), then vortex and spin. Remove 400 μL of the lower layer from the 2 mL plate and add to the wells of another plate the “Final Plate”. Add CHCl3:MeOH (400 μL 2:1) to the 2 mL Plate. Again turn the sealed 2 mL Plate up and down (10×), vortex and spin. Remove 220 μL of the lower layer from the 2 mL Plate and add to the Final Plate. Dry the Final Plate and reconstitute with […] of IPA. Seal the Final Plate and shake for 5 min. […]

human MOGAT-2 [3] = target: T1, human MOGAT-2; assay: MOGAT-2 Inhibitory Assay (in vitro, SF9 cell lysate, 14C-oleoyl-CoA, Microscint extraction); assay type: biochemical; design: made in house; host or cells: insect SF9 cells (crude lysate supernatant); settings: SF9 cell extract expressing human MOGAT-2, 90 min, room temperature
Description: The in vitro inhibitory activity of compounds against human MOGAT-2 is evaluated in this assay. MOGAT-2 transfers an oleoyl group to monooleoyl-glycerol (“MAG”) from oleoyl-CoA to form dioleoyl-glycerol (“DAG”) in the intestinal triglyceride resynthesis pathway. The assay takes advantage of Microscint Extraction, which extracts hydrophobic molecules selectively over hydrophilic ones to separate the ^14C-oleoyl-CoA from ^14C-DAG.
Genetically engineered insect SF9 cells express human MOGAT-2. Prepare the cell lysate in 20 mM of NaCl with protease inhibitor (Roche Cat #11873580001). Homogenize the SF9 cells expressing human MOGAT-2 at 15,000 rpm for 20×2 seconds (PT-3100 Polytrone). Centrifuge the homogenate at 1000 g for 10 minutes at 4° C. Collect the supernatant into a separate tube for protein quantification and activity testing. Purify the glycerol monooleate substrate (Spectrum Chemical, CAS#25496-72-4) chromatographically. Prepare the monoacylglyerol (MAG) substrate in phospholipid vescicles (dioleoyl phosphatidylcholine “DOPC”). Prepare the MAG/DOPC vesicles at 20 mM concentration of total lipids (MAG and DOPC). Prepare different molar ratios of MAG to total lipids for either compound screening (8.9%) or compound kinetic studies (2.6-40%). Mix the appropriate amount of purified MAG and DOPC (Avanti Polar Lipids #850375C) in chloroform in a glass tube. […]

T1 sequence (Q3SYC2 whole entry): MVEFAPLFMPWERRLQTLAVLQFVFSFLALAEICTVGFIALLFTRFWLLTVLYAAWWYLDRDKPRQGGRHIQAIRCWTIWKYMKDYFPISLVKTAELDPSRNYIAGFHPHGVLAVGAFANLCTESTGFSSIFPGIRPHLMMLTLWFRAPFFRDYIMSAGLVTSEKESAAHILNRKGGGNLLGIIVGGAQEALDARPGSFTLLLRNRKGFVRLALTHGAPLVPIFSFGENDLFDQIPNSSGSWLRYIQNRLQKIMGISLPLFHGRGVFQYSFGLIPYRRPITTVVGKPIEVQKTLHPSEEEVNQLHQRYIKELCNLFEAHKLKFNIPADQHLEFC

IC50 (human MOGAT-2 [2]) [nM]	IC50 (human MOGAT-2 [3]) [nM]	Structure (SMILES)	reduction of 18:1 TAG (plasma TAG 18:1 18:1 18:1 net AUC) ([1]; 30 mg/kg) [%]	reduction of TAG secretion (percent inhibition of plasma total triglyceride net AUC) ([1]; 30 mg/kg, total TAG) [%]	reduction of 18:1 TAG (plasma TAG 18:1 18:1 18:1 net AUC) ([1]; 60 mg/kg) [%]	reduction of TAG secretion/absorption (percent inhibition of plasma total triglyceride net AUC) ([1]; 60 mg/kg, total TAG) [%]
30.6	2	COC[C@H](CNCc1ccc([C@H](NS(C)(=O)=O)C(F)(F)F)cc1)Oc1ccc(F)cn1.Cl [Example 1, N-[(1S)-2,2,2-Trifluoro-1-{4-[({(2S)-2-[(5-fluoropyridin-2-yl)oxy]-3-methoxypropyl}amino)methyl]phenyl}ethyl]methanesulfonamide hydrochloride]	64	61	76	77
14.4		C[C@H](CNCc1ccc([C@H](NS(C)(=O)=O)C(F)(F)F)cc1)Oc1ccccn1 [Example 3, N-{(1S)-2,2,2-Trifluoro-1-[4-({[(2R)-2-(pyridin-2-yloxy)propyl]amino}-methyl)phenyl]ethyl}-methanesulfonamide hydrochloride]				
44.6		COC[C@H](CNCc1ccc([C@H](NS(C)(=O)=O)C(F)(F)F)cc1)Oc1ccccn1 [Example 5, N-{(1S)-2,2,2-Trifluoro-1-[4-({[(2S)-3-methoxy-2-(pyridin-2-yloxy)propyl]amino}-methyl)phenyl]ethyl}-methanesulfonamide hydrochloride (1:1)]				
45.5		CS(=O)(=O)N[C@@H](c1ccc(CNCCOc2ccc(F)cn2)cc1)C(F)(F)F [Example 17, N-[(1S)-2,2,2-Trifluoro-1-{4-[({2-[(5-fluoropyridin-2-yl)oxy]ethyl}amino)-methyl]phenyl}ethyl]-methanesulfonamide hydrochloride]				
36.1		C[C@H](CNCc1ccc([C@H](NS(C)(=O)=O)C(F)(F)F)cc1)Oc1ccc(F)cn1.Cl [Example 36, N-[(1S)-2,2,2-Trifluoro-1-{4-[({(2r)-2-[(5-fluoropyridin-2-yl)oxy]propyl}amino)methyl]phenyl}ethyl]-methanesulfonamide hydrochloride]			43	38
